Test results from patent US20090030066A1, “SMALL MOLECULES FOR THE PROTECTION OF PANCREATIC CELLS” (priority 2007, published 2009).

Legend:
[1] = system: L-arginine-treated rats; test: L-arginine-treated rat model of necrotic pancreatitis; assay type: in vivo
Source text: L-arginine-treated rats are frequently used experimental tools to model necrotic pancreatitis [Krajewski, E., Krajewski, J., Spodnik, J. H., Figarski, A. and Kunasik-Juraniec, J. (2005) Changes in the morphology of the acinar cells of the rat pancreas in the oedematous and nectoric types of experimental acute pancreatitis. Folia Morphol. 64, 292-303]. L-arginine is a precursor of NO which primarily destroys the exocrine pancreas with subsequent damage of insulin producing islet cells. Just like pancreatitis is often associated with elevated blood glucose level in human patients, extensive damage of pancreas in the L-arginine-treated animal model also results in damaged function of β-cells as indicated by higher blood glucose levels. In this example, the L-arginine-treated rat model was employed to see if CCompound1 could also prevent or reduce deterioration of β-cell function and the damage of the exocrine pancreas.
Male Wistar rats weighing 220-250 g were divided into four groups, each group consisting of 6 animals. To ensure standard conditions animals were starved for 16 hours before the start of the experiment. CCompound1 was first injected 24 hours prior to L-arginine injection, followed by similar daily injections for 5 consecutive days. In the first group, rats remained untreated. On day 0, animals in groups 2-4 were injected 2×2.5 g/kg L-arginine i.p. at one hour intervals. Animals in group 4 also received daily s.c. injection of 4.5 mg/kg of CCompound1 between days −1 and 5. To verify development of acute pancreatitis, 24 hours after L-arginine injections rats in group 2 were anesthetized with 45 mg/kg pentobarbital i.p. and exsanguinated through the abdominal aorta. On day 0, 2, 4 and 6 blood sugar values of the experimental animals were measured after fasting for 8 hours with the C-test; blood samples were taken from the tail. Edema of the pancreatic tissue was assessed by the pancreatic weight/body weight ratio. The animals in the remaining groups were sacrificed on day 7.
For histological examinations, a portion of the head of the pancreas was fixed in 4% neutral formaldehyde solution and embedded in paraffin. Tissue slices were stained with hematoxylin and eosin and examined by light microscopy. Slices were coded and examined blind by a pathologist for the grading of histological alterations. The extent and intensity of pancreatic edema, leukocyte infiltration, acinar vacuolization, hyperemia and tubular transformation were described with scores ranging from 0 to 3. The total histological damage was calculated by adding the scores for the various below listed parameters together.
Hyperemia; defined as the amount of red blood cells in the vessels.
Edema; defined as the widening of interstitial space.
Vacuolization; defined as the formation of vacuoles in the cytoplasm of acinar cells. Vacuolization results from the fusion of zymogene granules and lysosomes.
Inflammation; defined and quantified by the infiltration of the tissue with mononuclear inflammatory cells (lymphocytes, plasma cells, and mast cells).
Necrosis; defined as the measure of the extent of the destruction of normal pancreatic tissue structure.
Tubular transformation; defined as desquamation of acinar cell apical cytoplasm and release of cytoplasm segments into the acinar lumen leading to formation of duct-like tubular complexes. (Elsässer H. P., Adler G and Kern H. F. (1986) Time course and cellular source of pancreatic regeneration following acute pancreatitis in the rat. Pancreas 1 (5) 421-9).
Total histological damage (total damage); defined and calculated by combining the histological scores of the above mentioned parameters (except vacuolization). This value is the generally accepted best representation of the severity of pancreatitis in the art. […]

[2] = system: STZ-treated mice; test: STZ-treated mice, third experiment (fasted): blood glucose, body weight, survival; assay type: in vivo
Protocol: The effects of CCompound1 on blood glucose level and body weight as well as survival were also examined in a third experiment. Animals weighing between 24.6-25.3 g were selected for this experiment with each group consisting of 6 mice. One group of mice (group 1) received no treatment over the entire experiment, while in the other two groups (groups 2-3), animals were injected (i.p.) with 210 mg/kg of STZ on day 0. Animals in group 3 were also injected (i.p.) with 4.5 mg per kg of CCompound1 once daily for 10 days starting 24 h prior to STZ treatment. CCompound1 and STZ were dissolved as previously indicated.
In this experiment the animals were fasted for 13-14 hours (fasted overnight from 6 p.m. to 7-8 a.m. and returned to normal diet from 8 a.m. to 6 p.m) prior to taking the blood samples.

[3] = L-arginine + compound, pancreas, day 7

Structure (SMILES): Cc1c(OCC(O)C[N+](C)(C)C)cc2c(=O)c3ccccc3sc2c1C.[Cl-] (centres unmarked) [CCcompound1, [3-(3,4-Dimethyl-9-oxo-9H-thioxanthen-2-yloxy)-2-hydroxypropyl]trimethyl-ammonium chloride]
- effect on L-arginine-stimulated blood glucose ([1]; 4.5 mg/kg s.c. daily): reduced L-arginine-stimulated blood glucose to control level
- Blood glucose ([1]; L-arginine 2×2.5 g/kg i.p. day 0 + compound 4.5 mg/kg s.c. daily days −1 to 5, fasted 8 h, day 0): 6.28 ± 0.31 mM
- effect on tissue necrosis ([1]; L-arginine + compound): significant reduction in tissue necrosis
- Blood glucose ([1]; L-arginine + compound 4.5 mg/kg s.c. daily, fasted 8 h, day 2): 6.46 ± 0.33 mM
- Blood glucose ([1]; L-arginine + compound 4.5 mg/kg s.c. daily, fasted 8 h, day 4): 6.26 ± 0.21 mM
- Blood glucose ([1]; L-arginine + compound 4.5 mg/kg s.c. daily, fasted 8 h, day 6): 6.00 ± 0.49 mM
- insulin staining score (scale 0 to 3) ([1]; L-arginine + compound, day 7, immunohistochemistry of pancreas): 2.45±0.30
- Edema histological score (0 to 3) [1, 3]: 1.33 ± 0.21
- Hyperemia histological score (0 to 3) [1, 3]: 1.17 ± 0.17
- Inflammation histological score (0 to 3) [1, 3]: 2.00 ± 0.00
- Necrosis histological score (0 to 3) [1, 3]: 1.25 ± 0.36
- Total damage (sum of histological scores except vacuolization) [1, 3]: 7.75 ± 0.70
- Tubular transformation histological score (0 to 3) [1, 3]: 2.00 ± 0.37
- Vacuolization histological score (0 to 3) [1, 3]: 1.17 ± 0.17
- protection of endocrine and exocrine pancreatic cells ([1]; L-arginine-induced necrotic pancreatitis model): partially or fully protected both the endocrine and exocrine pancreatic cells
- Blood glucose ([2]; STZ 210 mg/kg i.p. day 0 + compound 4.5 mg/kg i.p. daily for 10 days from day −1, fasted, day −1): 2.1 ± 0.3 mM
- Blood glucose ([2]; STZ + compound 4.5 mg/kg i.p. daily for 10 days (stopped day 9), fasted, day 14): 11.8 ± 1.0 mM
- Blood glucose ([2]; STZ + compound 4.5 mg/kg i.p. daily for 10 days (stopped day 9), fasted, day 21): 12.5 ± 0.8 mM
- Body weight ([2]; STZ + compound 4.5 mg/kg i.p. daily for 10 days, day 0): 25.1 ± 0.5 g
- Body weight ([2]; STZ + compound 4.5 mg/kg i.p. daily for 10 days, day 3): 24.3 ± 1.0 g
- Body weight ([2]; STZ + compound 4.5 mg/kg i.p. daily for 10 days, day 5): 24.2 ± 0.9 g
- Body weight ([2]; STZ + compound 4.5 mg/kg i.p. daily for 10 days, day 7): 24.1 ± 0.7 g
- Body weight ([2]; STZ + compound 4.5 mg/kg i.p. daily for 10 days, day 9): 24.3 ± 0.8 g
- Body weight ([2]; STZ + compound 4.5 mg/kg i.p. daily for 10 days, day 11): 24.3 ± 0.9 g
- Body weight ([2]; STZ + compound 4.5 mg/kg i.p. daily for 10 days, day 13): 24.5 ± 1.1 g
- Body weight ([2]; STZ + compound 4.5 mg/kg i.p. daily for 10 days, day 15): 23.9 ± 0.4 g
- Body weight ([2]; STZ + compound 4.5 mg/kg i.p. daily for 10 days, day 17): 24.5 ± 1.1 g
- Body weight ([2]; STZ + compound 4.5 mg/kg i.p. daily for 10 days, day 21): 24.4 ± 1.0 g
- Blood glucose ([2]; STZ + compound 4.5 mg/kg i.p. daily for 10 days, fasted, day 0): 2.1 ± 0.2 mM
- Blood glucose ([2]; STZ + compound 4.5 mg/kg i.p. daily for 10 days, fasted, day 1): 6.7 ± 0.7 mM
- Blood glucose ([2]; STZ + compound 4.5 mg/kg i.p. daily for 10 days, fasted, day 2): 7.1 ± 0.5 mM
- Blood glucose ([2]; STZ + compound 4.5 mg/kg i.p. daily for 10 days, fasted, day 3): 7.2 ± 0.5 mM
- Blood glucose ([2]; STZ + compound 4.5 mg/kg i.p. daily for 10 days, fasted, day 4): 7.6 ± 0.4 mM
- Blood glucose ([2]; STZ + compound 4.5 mg/kg i.p. daily for 10 days, fasted, day 5): 8.2 ± 0.4 mM
- Blood glucose ([2]; STZ + compound 4.5 mg/kg i.p. daily for 10 days, fasted, day 6): 8.6 ± 0.3 mM
- Blood glucose ([2]; STZ + compound 4.5 mg/kg i.p. daily for 10 days, fasted, day 7): 9.3 ± 0.5 mM
- Blood glucose ([2]; STZ + compound 4.5 mg/kg i.p. daily for 10 days, fasted, day 8): 10.4 ± 0.7 mM
- Blood glucose ([2]; STZ + compound 4.5 mg/kg i.p. daily for 10 days, fasted, day 9): 11.0 ± 1.1 mM
- mice alive on day 53 ([2]; STZ + compound, 6 mice per group): 6
- body weight lost ([2]; co-treated with compound and STZ, day 0 to day 21): 0.7 to 1.2 g
- reduction of the effects of STZ on blood glucose level ([2]; days 3 and 4): more than 50%
